Data taken from patent US4308256A, “Method of inducing analgesia” (American Home Products Corporation, priority 1980, dated 1981).
Bridge positions count the residues as written; N and C are the ends. Square brackets hold non-standard residues; d marks the D form. Peptide text beside a SMILES is read from it. * marks the point of attachment. Ileψ(thiazoline)Cys = CC[C@H](C)[C@H](N)C1=N[C@H](C(=O)*)CS1; dOrn = NCCC[C@@H](N)C(=O)O

How the values were obtained:
[1] = tested on: rats; conditions: fully reversible by naloxone; cited from earlier work
[2] = tested on: male Charles River rats; assay: D'Amour-Smith rat tail-flick procedure (radiant heat, 8 second cut-off), intraventricular injection; type: in vivo; conditions: for Tail-flick latency: leucine-enkephalin intraventricular
Protocol: Intraventricular cannulae, made of 27-gauge stainless steel tubing, are implanted in 300-400 g. male Charles River rats under pentobarbital anesthesia. After a recovery period of at least one week, the rats are restrained in a wire-mesh cylindrical chamber so that the tip of the tail can be positioned at the focal point of a radiant heat source. After an acclimatistation period of 5 minutes, the lamp is turned on and an electric clock activated. Movement of the tip of the tail exposes a photocell to the lamp, which turns off the thermal stimulus and stops the clock. If a rat fails to move its tail within 8 seconds, the heat is automatically turned off to prevent blistering. The intensity of the lamp is adjusted in each case to produce at least three baseline tail-flick latencies of 2.5-4.5 seconds. Tests are initially made every 2 minutes, then every 5 minutes and finally every 15 minutes.
Initially, using the above outlined procedure, the effects of intraventricularly administered leucine-enkephalin are tested in rats according to the above procedure.
The rat tail flick procedure is repeated, first by the simultaneous intraventricular injection of both leucine-enkephalin and bestatin and then by the initial injection of bestatin followed one hour later by the injection of leucine-enkephalin.
The above procedure is repeated again, however, the bestatin is administered first and then one hour later the leucine-enkephalin is administered.
The effects of bestatin alone are tested in rats according to the rat tail flick procedure.

[3] = tested on: aminopeptidase; conditions: cited from earlier work
[4] = exogenously (intraventricularly) administered leucine-enkephalin alone, rats

## CC(C)C[C@H](NC(=O)[C@H](Cc1ccccc1)NC(=O)CNC(=O)CNC(=O)[C@@H](N)Cc1ccc(O)cc1)C(=O)O [leucine-enkephalin, H-Tyr-Gly-Gly-Phe-Leu-OH, reference compound]
[1]
  Analgesia after injection into the brain ventricle: profound analgesia
[2]; [4]
  Time after which the effect dissipates rapidly: 10 to 12 min
  Time to peak analgesic effect: 6 to 8 min
[2]; Rat 1, 2 min
  Tail-flick latency: 8.00 s
[2]; Rat 1, 4 min
  Tail-flick latency: 8.00 s
[2]; Rat 1, 6 min
  Tail-flick latency: 8.00 s
[2]; Rat 1, 8 min
  Tail-flick latency: 8.00 s
[2]; Rat 1, 10 min
  Tail-flick latency: 6.15 s
[2]; Rat 1, 12 min
  Tail-flick latency: 5.76 s
[2]; Rat 1, 14 min
  Tail-flick latency: 2.69 s
[2]; Rat 2, 2 min
  Tail-flick latency: 8.00 s
[2]; Rat 2, 4 min
  Tail-flick latency: 8.00 s
[2]; Rat 2, 6 min
  Tail-flick latency: 5.11 s
[2]; Rat 2, 8 min
  Tail-flick latency: 4.24 s
[2]; Rat 2, 10 min
  Tail-flick latency: 3.48 s
[2]; Rat 2, 12 min
  Tail-flick latency: 4.15 s
[2]; Rat 3, 2 min
  Tail-flick latency: 4.88 s
[2]; Rat 3, 4 min
  Tail-flick latency: 8.00 s
[2]; Rat 3, 6 min
  Tail-flick latency: 7.50 s
[2]; Rat 3, 8 min
  Tail-flick latency: 8.00 s
[2]; Rat 3, 10 min
  Tail-flick latency: 4.50 s
[2]; Rat 3, 12 min
  Tail-flick latency: 3.49 s
[2]; Rat 3, 14 min
  Tail-flick latency: 3.04 s
[2]; Rat 4, 2 min
  Tail-flick latency: 6.47 s
[2]; Rat 4, 4 min
  Tail-flick latency: 6.97 s
[2]; Rat 4, 6 min
  Tail-flick latency: 6.62 s
[2]; Rat 4, 8 min
  Tail-flick latency: 7.17 s
[2]; Rat 4, 10 min
  Tail-flick latency: 6.81 s
[2]; Rat 4, 12 min
  Tail-flick latency: 7.52 s
[2]; Rat 4, 14 min
  Tail-flick latency: 3.06 s

## COc1ccc(C[C@H](N)C(=O)N[C@H]2[C@@H](O)[C@H](n3cnc4c(N(C)C)ncnc43)O[C@@H]2CO)cc1 [puromycin]
[3]
  Inhibition of "aminopeptidase"-catalyzed breakdown of enkephalins: effective inhibitors

## H-Tyr-Gly-Gly-Phe-Met-OH [methionine-enkephalin]
[1]
  Analgesia after injection into the brain ventricle: profound analgesia

## CC[C@H](C)[C@H](N)C1=N[C@H](C(=O)N[C@@H](CC(C)C)C(=O)N[C@H](CCC(=O)O)C(=O)N[C@H](C(=O)N[C@H]2CCCCNC(=O)[C@H](CC(N)=O)NC(=O)[C@@H](CC(=O)O)NC(=O)[C@H](Cc3cnc[nH]3)NC(=O)[C@@H](Cc3ccccc3)NC(=O)[C@H]([C@@H](C)CC)NC(=O)[C@@H](CCCN)NC2=O)[C@@H](C)CC)CS1 [bacitracin] ({Ileψ(thiazoline)Cys}-L[dE]IK[dOrn]I[dF]H[dD]N; lactam 4-C)
[3]
  Inhibition of "aminopeptidase"-catalyzed breakdown of enkephalins: effective inhibitors
